According to ChEMBL document CHEMBL3046414, “Synthesis, anticancer, anti-HIV-1, and antimicrobial activity of some tricyclic triazino and triazolo[4,3-e]purine derivatives” (Med Chem Res, 2012):
Converted amounts (≈) assume the structure as drawn.

What was measured:
MCF7 = assay: Anticancer activity against Homo sapiens (human) MCF7 cells assessed as cell growth at 100 uM after 48 hr by Alamar blue assay; type: functional; details: MCF7, 48 h, read-out: Activity
Candida albicans [1] = assay: Antimicrobial activity against Candida albicans NCTC 2708 after 48 hr by agar cup diffusion technique; type: functional
Proteus vulgaris [2] = assay: Antimicrobial activity against Proteus vulgaris ATCC 49132 after 24 hr by two-fold serial dilution method; type: functional; details: ATCC 49132, 24 h
NCI-H460 = assay: Anticancer activity against Homo sapiens (human) NCI-H460 cells assessed as cell growth at 100 uM after 48 hr by Alamar blue assay; type: functional; details: NCI-H460, 48 h, read-out: Activity
Pseudomonas aeruginosa [3] = assay: Antimicrobial activity against Pseudomonas aeruginosa ATCC 9027 after 24 hr by agar cup diffusion technique; type: functional
Saccharomyces cerevisiae [4] = assay: Antimicrobial activity against Saccharomyces cerevisiae ATCC 9763 after 48 hr by agar cup diffusion technique; type: functional
Staphylococcus aureus [5] = assay: Antimicrobial activity against Staphylococcus aureus NCTC 4163 after 24 hr by agar cup diffusion technique; type: functional
Proteus vulgaris [6] = assay: Antimicrobial activity against Proteus vulgaris ATCC 49132 after 24 hr by agar cup diffusion technique; type: functional
Escherichia coli = assay: Antimicrobial activity against Escherichia coli 5933 after 24 hr by agar cup diffusion technique; type: functional
SF-268 = assay: Anticancer activity against Homo sapiens (human) SF268 cells assessed as cell growth at 100 uM after 48 hr by Alamar blue assay; type: functional; details: SF-268, 48 h, read-out: Activity
Bacillus spizizenii [7] = assay: Antimicrobial activity against Bacillus subtilis subsp. spizizenii ATCC 6633 after 24 hr by agar cup diffusion technique; type: functional
Salmonella typhi [8] = assay: Antimicrobial activity against Salmonella enterica subsp. enterica serovar Typhi ATCC 13311 after 24 hr by agar cup diffusion technique; type: functional
Aspergillus niger [9] = assay: Antimicrobial activity against Aspergillus niger ATCC 16404 after 48 hr by agar cup diffusion technique; type: functional
CCRF-CEM = assay: Cytotoxicity against Homo sapiens (human) CEM cells by XTT assay; type: cell-based
[10] = test system: Human immunodeficiency virus 1; assay: Antiviral activity against Human immunodeficiency virus 1 infected CEM cells assessed as inhibition of virus-induced cytopathic effect at 2 X 10^-4 M by XTT assay; type: functional; details: Human immunodeficiency virus 1, CCRF-CEM
Staphylococcus aureus [11] = assay: Antimicrobial activity against Staphylococcus aureus NCTC 4163 after 24 hr by two-fold serial dilution method; type: functional; details: NCTC 4163, 24 h
Pseudomonas aeruginosa [12] = assay: Antimicrobial activity against Pseudomonas aeruginosa ATCC 9027 after 24 hr by two-fold serial dilution method; type: functional; details: ATCC 9027, 24 h
Salmonella typhi [13] = assay: Antimicrobial activity against Salmonella enterica subsp. enterica serovar Typhi ATCC 13311 after 24 hr by two-fold serial dilution method; type: functional; details: ATCC 13311, 24 h
Bacillus spizizenii [14] = assay: Antimicrobial activity against Bacillus subtilis subsp. spizizenii ATCC 6633 after 24 hr by two-fold serial dilution method; type: functional; details: ATCC 6633, 24 h
[15] = test system: Human immunodeficiency virus 1; assay: Antiviral activity against Human immunodeficiency virus 1 infected CEM cells assessed as inhibition of virus-induced cytopathic effect at 2 X 10^-5 M by XTT assay; type: functional; details: Human immunodeficiency virus 1, CCRF-CEM
Aspergillus niger [16] = assay: Antimicrobial activity against Aspergillus niger ATCC 16404 after 48 hr by two-fold serial dilution method; type: functional; details: ATCC 16404, 48 h
Saccharomyces cerevisiae [17] = assay: Antimicrobial activity against Saccharomyces cerevisiae ATCC 9763 after 48 hr by two-fold serial dilution method; type: functional; details: ATCC 9763, 48 h
Aspergillus terreus = assay: Antimicrobial activity against Aspergillus terreus after 48 hr by two-fold serial dilution method; type: functional
Candida albicans [18] = assay: Antimicrobial activity against Candida albicans NCTC 2708 after 48 hr by two-fold serial dilution method; type: functional; details: NCTC 2708, 48 h

CCOC(=O)c1n[nH]c2nc3c(=O)n(C)c(=O)n(C)c3n2c1=N
growth at 100 µM (MCF7): 93%
inhibition zone (IZ) (Candida albicans [1]): 17 mm
MIC (Proteus vulgaris [2]): < 100 µg/mL
growth at 100 µM (NCI-H460): 99%
inhibition zone (IZ) (Pseudomonas aeruginosa [3]): 20 mm
inhibition zone (IZ) (Saccharomyces cerevisiae [4]): 15 mm
inhibition zone (IZ) (Staphylococcus aureus [5]): 16 mm
inhibition zone (IZ) (Proteus vulgaris [6]): 22 mm
inhibition zone (IZ) (Escherichia coli): 15 mm
growth at 100 µM (SF-268): 98%
inhibition zone (IZ) (Bacillus spizizenii [7]): 14 mm

Cn1c(=O)c2c(n(C)c1=O)n1c(-c3ccccc3)nnc1n2C
inhibition zone (IZ) (Salmonella typhi [8]): 11 mm
growth at 100 µM (MCF7): 84%
inhibition zone (IZ) (Candida albicans [1]): 12 mm
inhibition zone (IZ) (Aspergillus niger [9]): 16 mm
growth at 100 µM (NCI-H460): 98%
inhibition zone (IZ) (Pseudomonas aeruginosa [3]): 17 mm
inhibition zone (IZ) (Saccharomyces cerevisiae [4]): 15 mm
inhibition zone (IZ) (Proteus vulgaris [6]): 19 mm
inhibition zone (IZ) (Escherichia coli): 14 mm
growth at 100 µM (SF-268): 90%
inhibition zone (IZ) (Bacillus spizizenii [7]): 15 mm

Cn1c(=O)c2c(n(C)c1=O)n1c(SCc3ccccc3)nnc1n2C
IC50 (CCRF-CEM): > 200 µM
inhibition at 200 µM [10]: 35.5%
inhibition zone (IZ) (Candida albicans [1]): 11 mm
MIC (Staphylococcus aureus [11]): < 25 µg/mL
inhibition zone (IZ) (Pseudomonas aeruginosa [3]): 19 mm
inhibition zone (IZ) (Saccharomyces cerevisiae [4]): 14 mm
inhibition zone (IZ) (Staphylococcus aureus [5]): 26 mm
inhibition zone (IZ) (Proteus vulgaris [6]): 18 mm
inhibition zone (IZ) (Escherichia coli): 12 mm

CC1(C)S[C@@H]2[C@H](NC(=O)[C@H](N)c3ccccc3)C(=O)N2[C@H]1C(=O)O [AMPICILLIN]
MIC (Pseudomonas aeruginosa [12]): 100 µg/mL (≈ 286 µM)
MIC (Proteus vulgaris [2]): 50 µg/mL (≈ 143 µM)
MIC (Staphylococcus aureus [11]): 5 µg/mL (≈ 14.3 µM)
MIC (Salmonella typhi [13]): 100 µg/mL (≈ 286 µM)
MIC (Bacillus spizizenii [14]): 5 µg/mL (≈ 14.3 µM)

Cn1c(=O)c2nc3[nH]nc(C(=O)O)c(=O)n3c2n(C)c1=O
IC50 (CCRF-CEM): > 200 µM
inhibition zone (IZ) (Candida albicans [1]): 13 mm
inhibition at 20 µM [15]: 3.73%
MIC (Proteus vulgaris [2]): < 200 µg/mL
MIC (Aspergillus niger [16]): < 200 µg/mL
inhibition zone (IZ) (Aspergillus niger [9]): 20 mm
inhibition zone (IZ) (Pseudomonas aeruginosa [3]): 16 mm
inhibition zone (IZ) (Saccharomyces cerevisiae [4]): 14 mm
inhibition zone (IZ) (Staphylococcus aureus [5]): 14 mm
inhibition zone (IZ) (Proteus vulgaris [6]): 21 mm
inhibition zone (IZ) (Escherichia coli): 13 mm
inhibition zone (IZ) (Bacillus spizizenii [7]): 14 mm

CCSc1nnc2n(C)c3c(=O)n(C)c(=O)n(C)c3n12
inhibition zone (IZ) (Candida albicans [1]): 11 mm
MIC (Staphylococcus aureus [11]): < 200 µg/mL
inhibition zone (IZ) (Pseudomonas aeruginosa [3]): 19 mm
inhibition zone (IZ) (Saccharomyces cerevisiae [4]): 13 mm
inhibition zone (IZ) (Staphylococcus aureus [5]): 20 mm
inhibition zone (IZ) (Proteus vulgaris [6]): 19 mm
inhibition zone (IZ) (Escherichia coli): 12 mm
inhibition zone (IZ) (Bacillus spizizenii [7]): 13 mm

CC(=O)c1n[nH]c2nc3c(=O)n(C)c(=O)n(C)c3n2c1=O
IC50 (CCRF-CEM): > 200 µM
inhibition zone (IZ) (Candida albicans [1]): 13 mm
inhibition at 20 µM [15]: 1.43%
MIC (Proteus vulgaris [2]): < 100 µg/mL
inhibition zone (IZ) (Saccharomyces cerevisiae [4]): 13 mm
inhibition zone (IZ) (Proteus vulgaris [6]): 23 mm
inhibition zone (IZ) (Escherichia coli): 14 mm
inhibition zone (IZ) (Bacillus spizizenii [7]): 14 mm

Cn1c(=O)c2[nH]c(/N=N/c3c(N)n[nH]c3N)nc2n(C)c1=O
IC50 (CCRF-CEM): > 200 µM
inhibition at 200 µM [10]: 30.5%
inhibition zone (IZ) (Candida albicans [1]): 11 mm
inhibition zone (IZ) (Saccharomyces cerevisiae [4]): 12 mm
inhibition zone (IZ) (Proteus vulgaris [6]): 14 mm
inhibition zone (IZ) (Bacillus spizizenii [7]): 10 mm

Cn1c(=O)c2c(n(C)c1=O)n1c(-c3ccc(Br)cc3)nnc1n2C
MIC (Pseudomonas aeruginosa [12]): < 200 µg/mL
inhibition zone (IZ) (Candida albicans [1]): 14 mm
MIC (Proteus vulgaris [2]): < 100 µg/mL
MIC (Aspergillus niger [16]): < 100 µg/mL
inhibition zone (IZ) (Aspergillus niger [9]): 22 mm
inhibition zone (IZ) (Pseudomonas aeruginosa [3]): 20 mm
inhibition zone (IZ) (Saccharomyces cerevisiae [4]): 13 mm
inhibition zone (IZ) (Staphylococcus aureus [5]): 14 mm
inhibition zone (IZ) (Proteus vulgaris [6]): 22 mm
inhibition zone (IZ) (Escherichia coli): 12 mm
inhibition zone (IZ) (Bacillus spizizenii [7]): 11 mm

Clc1ccccc1C(c1ccccc1)(c1ccccc1)n1ccnc1 [CLOTRIMAZOLE]
MIC (Saccharomyces cerevisiae [17]): 5 µg/mL (≈ 14.5 µM)
MIC (Aspergillus niger [16]): 10 µg/mL (≈ 29 µM)
MIC (Aspergillus terreus): 10 µg/mL (≈ 29 µM)
MIC (Candida albicans [18]): 5 µg/mL (≈ 14.5 µM)

Cn1c(=O)c2c(n(C)c1=O)n1c(-c3ccc(Cl)cc3)nnc1n2C
growth at 100 µM (MCF7): 82%
MIC (Pseudomonas aeruginosa [12]): < 200 µg/mL
inhibition zone (IZ) (Candida albicans [1]): 12 mm
MIC (Proteus vulgaris [2]): < 100 µg/mL
growth at 100 µM (NCI-H460): 95%
MIC (Staphylococcus aureus [11]): < 100 µg/mL
inhibition zone (IZ) (Pseudomonas aeruginosa [3]): 21 mm
inhibition zone (IZ) (Saccharomyces cerevisiae [4]): 14 mm
inhibition zone (IZ) (Staphylococcus aureus [5]): 22 mm
inhibition zone (IZ) (Proteus vulgaris [6]): 25 mm
inhibition zone (IZ) (Escherichia coli): 12 mm
growth at 100 µM (SF-268): 90%
inhibition zone (IZ) (Bacillus spizizenii [7]): 13 mm

CSc1nnc2n(C)c3c(=O)n(C)c(=O)n(C)c3n12
IC50 (CCRF-CEM): > 200 µM
MIC (Pseudomonas aeruginosa [12]): < 200 µg/mL
inhibition at 200 µM [10]: 4.86%
inhibition zone (IZ) (Candida albicans [1]): 11 mm
MIC (Staphylococcus aureus [11]): < 200 µg/mL
inhibition zone (IZ) (Pseudomonas aeruginosa [3]): 20 mm
inhibition zone (IZ) (Saccharomyces cerevisiae [4]): 12 mm
inhibition zone (IZ) (Staphylococcus aureus [5]): 20 mm
inhibition zone (IZ) (Proteus vulgaris [6]): 19 mm
inhibition zone (IZ) (Escherichia coli): 12 mm

Cn1c(=O)c2c(n(C)c1=O)n1c(=S)[nH]nc1n2C
MIC (Pseudomonas aeruginosa [12]): < 100 µg/mL
inhibition zone (IZ) (Candida albicans [1]): 11 mm
MIC (Staphylococcus aureus [11]): < 50 µg/mL
inhibition zone (IZ) (Pseudomonas aeruginosa [3]): 21 mm
inhibition zone (IZ) (Saccharomyces cerevisiae [4]): 12 mm
inhibition zone (IZ) (Staphylococcus aureus [5]): 24 mm
inhibition zone (IZ) (Proteus vulgaris [6]): 19 mm
inhibition zone (IZ) (Escherichia coli): 12 mm
inhibition zone (IZ) (Bacillus spizizenii [7]): 11 mm

Cn1c(=O)c2nc3[nH]nc(C#N)c(=O)n3c2n(C)c1=O
IC50 (CCRF-CEM): > 200 µM
inhibition at 200 µM [10]: 10.9%
inhibition zone (IZ) (Candida albicans [1]): 15 mm
MIC (Proteus vulgaris [2]): < 100 µg/mL
inhibition zone (IZ) (Pseudomonas aeruginosa [3]): 16 mm
inhibition zone (IZ) (Saccharomyces cerevisiae [4]): 14 mm
inhibition zone (IZ) (Staphylococcus aureus [5]): 14 mm
inhibition zone (IZ) (Proteus vulgaris [6]): 22 mm
inhibition zone (IZ) (Escherichia coli): 12 mm
